Numbered stars: 1 amine (or outer) side, 2 acyl side, 3 side chain; on linkers, the order of the positions; unused ones are H or OH. Square brackets hold non-standard residues; d marks the D form. Peptide text beside a SMILES is read from it. X2 = O=C([C@H](Cc1cn(CCCCCCCCc2ccccc2)c2ccccc12)N[*:1])[*:2]; X1 = O=C([C@H](Cc1cn(CCCCCCCCc2ccccc2)cn1)N[*:1])[*:2]; pT = C[C@@H](OP(=O)(O)O)[C@H](N)C(=O)O

The target of the experiment is Plk1 PBD (Homo sapiens, UniProt P53350). The experiment in a line: ELISA-based Plk1 PBD-binding inhibition assay.
Plk1 PBD, sequence (P53350 whole entry): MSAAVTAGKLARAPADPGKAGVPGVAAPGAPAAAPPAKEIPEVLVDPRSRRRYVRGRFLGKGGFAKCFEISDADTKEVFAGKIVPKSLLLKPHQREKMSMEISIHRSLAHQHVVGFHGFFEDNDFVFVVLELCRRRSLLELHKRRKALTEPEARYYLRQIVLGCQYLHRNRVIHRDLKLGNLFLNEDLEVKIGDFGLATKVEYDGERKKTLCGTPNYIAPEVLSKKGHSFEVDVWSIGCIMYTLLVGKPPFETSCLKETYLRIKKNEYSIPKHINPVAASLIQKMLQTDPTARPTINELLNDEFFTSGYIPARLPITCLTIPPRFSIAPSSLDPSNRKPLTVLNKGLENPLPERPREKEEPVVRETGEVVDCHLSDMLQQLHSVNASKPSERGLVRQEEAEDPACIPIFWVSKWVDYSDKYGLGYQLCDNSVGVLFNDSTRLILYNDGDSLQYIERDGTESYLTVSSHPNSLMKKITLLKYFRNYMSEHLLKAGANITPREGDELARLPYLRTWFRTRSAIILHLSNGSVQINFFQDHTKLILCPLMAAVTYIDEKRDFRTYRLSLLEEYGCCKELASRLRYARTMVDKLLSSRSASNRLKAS

For `CC(=O)N1CCC[C@H]1C(=O)N[C@@H](CC(C)C)C(=O)N[C@@H](Cc1cn(CCCCCCCCc2ccccc2)cn1)C(=O)N[C@@H](CO)C(=O)N[C@H](C(N)=O)[C@@H](C)OP(=O)(O)O` [1c] (Ac-PL[X1]S[pT]-NH2; N-terminus and C-terminus assumed), where the note is “ratio of IC50 relative to 1b”, the “fold less affinity than 1b” value was “approximately 50 fold”.
As for `CC(=O)N1CCC[C@H]1C(=O)N[C@@H](CC(C)C)C(=O)N[C@@H](Cc1cn(CCCCCCCCc2ccccc2)c2ccccc12)C(=O)N[C@@H](CO)C(=O)N[C@H](C(N)=O)[C@@H](C)OP(=O)(O)O` [1d] (Ac-PL[X2]S[pT]-NH2; N-terminus and C-terminus assumed), the “fold less affinity than 1c” value (ratio of IC50 relative to 1c) is recorded as “approximately 30 fold”.
Take PLHST [reference compound]: for the setting “even at the highest concentration tested (300 μM)”, the “affinity of non-phosphorylated control peptide” value is “negligible affinity”.
